{"source": "patent US20250262298A1", "about": "“STING MODULATOR COMPOUNDS WITH SULFAMATE LINKAGES, AND METHODS OF MAKING AND USING” (TAKEDA PHARMACEUTICAL COMPANY LIMITED, priority 2018, published 2025)", "key": {"[1]": {"target": "Human STING (Homo sapiens (Human), UniProt Q86WV6, H232R)", "sequence (Q86WV6 140-379 H232R)": "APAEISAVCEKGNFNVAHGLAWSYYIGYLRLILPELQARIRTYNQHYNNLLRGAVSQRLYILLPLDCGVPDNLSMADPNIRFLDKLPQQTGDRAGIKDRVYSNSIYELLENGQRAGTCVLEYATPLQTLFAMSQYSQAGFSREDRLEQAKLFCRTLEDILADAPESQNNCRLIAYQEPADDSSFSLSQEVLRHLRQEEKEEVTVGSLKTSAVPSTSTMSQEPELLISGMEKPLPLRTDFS", "experiment": "Human STING TR-FRET assay", "assay_type": "binding", "settings": "human STING residues 140-379 (H232R), 100 nM; fluorescein labeled ligand 100 nM; 60 minutes at rt", "description": "Human STING (accession number GB:BC047779) DNA encoding residues 140-379 (H232R) was cloned into pET28 as N-terminal HIS and C-terminal Avi tagged fusion protein, and a rTEV cleavage site between HIS tag and STING. The sequence was verified before recombinant protein expression using E. coli expression system.\nFor expression, STING expression vector was transformed into BL21(DE3) cells. The expression was induced by adding IPTG and expressing in 16° C. for 20 hours.\nFor purification, STING was purified by Nickel affinity resin (Thermo Scientific #25215), followed by TEV enzyme cleavage and Superdex 200 column (GE Healthcare #28-9893-35) purification. For site directed in vitro biotinylation, purified Avi-tagged STING protein was incubated with Biotin (SUPELCO #47868), ATP (SIGMA #A-7699) and BirA enzyme, followed by further purification through a Superdex 200 column (GE Healthcare #28-9893-35). Biotinylation was confirmed by Mass Spectrometry analysis.\n40 nL of test compounds in DMSO were added to wells in a white, 384 well microtitre plate (Greiner 784075). 2 uL STING assay buffer (PBS and 0.01% BSA) containing fluorescein labeled ligand (c[G(2′,5′)p-2′-Fluo-AHC-A(3′,5′)p]-Biolog C 195, 100 nM final) and Tb labeled Streptavidin (Streptavidin-Tb cryptate-CisBio 610SATLB) were added. Then 2 uL STING assay buffer containing STING protein (100 nM final) was added and the mixture was incubated at rt for 60 minutes. The plates were then read on a BMG PheraStar Plus reader (LanthaScreen module).\n(§1) For the assay method described above, test compound percent inhibition, at various concentrations, was calculated relative to untreated and DMSO only treated samples. Compound concentration versus percent inhibition curves were fitted to generate IC50 values. One skilled in the art will appreciate that the values generated either as percentage inhibition at a single concentration or IC50 values are subject to experimental variation."}, "[2]": {"system": "THP1-Dual cells (Lucia luciferase under ISG54 promoter)", "experiment": "THP-1 Dual Lucia reporter gene assay", "assay_type": "cell-based, human", "settings": "Homo sapiens, THP1-Dual, 20 h, luminescence signal induction, 20 hours at 37° C.", "description": "THP1-Dual™ cells (InvivoGen #thpd-nfis) were derived from the human THP-1 monocyte cell line by stable integration of the Lucia luciferase gene, a secreted luciferase reporter gene, under the control of an ISG54 (interferon-stimulated gene) minimal promoter in conjunction with five interferon (IFN)-stimulated response elements. On the day of experiment, the cells were plated to a black, 384-well plate (Corning 356697) at 7500 cells/25 μl per well density in growth media (RPMI 1640, 2 mM L-glutamine, 25 mM HEPES, 10% heat-inactivated fetal bovine serum, 100 μg/mL Normocin™, 50 U/mL-50 μg/mL Pen-Strep, 10 μg/mL of blasticidin, and 100 μg/mL of Zeocin). The cell plates were dosed with 62.5 nL of the testing compounds, and then incubated at 37° C. for 20 hours. At the end of the incubation, 15 μL/well of the QUANTI-Luc™ (InvivoGen #rep-qlc1) were added, and luminescence was measured immediately using the LeadSeeker.\nas §1, with “luminescence signal induction,” for “inhibition,”, “signal induction” for “inhibition”, “EC50” for “IC50”, “generated” for “generated either”, “EC50” for “percentage inhibition at a single concentration or IC50”"}}, "data": [{"smiles": "Nc1nc2c(ncn2[C@@H]2O[C@@H]3CNS(=O)(=O)O[C@H]4C[C@H](n5cnc6cncnc65)C[C@@H]4COP(=O)(S)O[C@@H]2C3)c(=O)[nH]1", "note": "(single isomer, unassigned) [Compound I-6]", "values": [{"measurement": "IC50", "setting": "[1]", "value": "> 100", "unit": "µM"}, {"measurement": "EC50", "setting": "[2]", "value": "> 25", "unit": "µM"}]}]}
